This note sets out measurements from ChEMBL document CHEMBL1128889, “Preparation and biological evaluation of -Trifluoromethyl-,-unsaturated carbonyl compounds” (Bioorg Med Chem Lett, 1995).

The structures appear in SMILES notation. ≈ marks a conversion by molar mass, not a printed value.

The nature of this test: In vitro viable cell inhibitory towards interleukin-2 antiproducing effect was determined. It is filed as functional.

Regarding `CC1(C)OC[C@H]([C@H](OC(=O)/C=C/C(F)(F)F)[C@@H](OC(=O)/C=C/C(F)(F)F)[C@H]2COC(C)(C)O2)O1`, half-maximal inhibition (IC50) was put at 0.8 µg/mL (≈ 1.58 µM).
Turning to `CC1(C)COC(=O)[C@@H]1OC(=O)/C=C/C(F)(F)F`, it took 3.71 µg/mL (≈ 14.7 µM) to reach half-maximal inhibition (IC50).
